In one assay the test system is human fibronectin. The experiment in a line: Binding assay of platelet to adhesive protein: fibronectin (receptor binding inhibition). Conditions: Table 4; fixed activated human platelets, 37° C., 60 minutes. The procedure:
(§1) The blood was taken out from the elbow vein of a normal volunteer, and mixed with 1/10 volume of 3.8% sodium citrate. The blood was centrifuged at 1,000 rpm (150 g) for 10 minutes, and the supernatant is collected as a platelet rich plasma (PRP). The precipitates are centrifuged at 11,000 rpm (6000 g) for two minutes, and the supernatant is collected as a platelet poor plasma (PPP). To PRP is added prostaglandin I2 (PGl2) at a final concentration of 50 ng/ml, and the mixture was centrifuged at 11000 rpm for two minutes to give human platelet. The platelet was activated by washing with 3.8 mM HEPES-buffer (pH 7.4, Tyrode-HEPES buffer) containing 0.14 M sodium chloride, 2.7 mM potassium chloride, 3.7 mM sodium dihydrogen phosphate, 0.98 mM magnesium chloride, 1 mg/ml glucose, 50 ng/ml PGl2 and 0.35% bovine serum albumin (BSA), adding thereto 5 μM epinephrine, and 30 μM ADP (adenosine diphosphate), followed by being allowed to stand at room temperature for five minutes. To the activated platelet was added 0.05% p-formaldehyde, and the mixture was allowed to stand at room temperature for 30 minutes to give the fixed platelet, which was suspended in Tyrode-HEPES buffer to give a platelet suspension of a concentration of 2×10^8 ml^-1.
(§2) Human fibrinogen from which fibronectin was previously removed by passing through gelatin-cepharose, human fibronectin or human vitronectin was diluted with 0.1 M aqueous sodium hydrogen carbonate solution to a concentration of 5 μg/ml, and the protein solution is put into a 96-well microplate at a volume of 200 μl/well. The microplate was allowed to stand at 4° C. overnight. The plate was washed with phosphate buffered saline (PBS), and subjected to blocking with 3% BSA at 37° C. for one hour. To the plate were added a platelet suspension (final concentration, 10^8 ml^-1) and a test compound of various concentrations (total volume, 200 μl/well), and the plate was incubated at 37° C. for 60 minutes. The plate was treated with 1000-fold diluted enzyme (HRP)-labelled anti-mouse IgG polyclonal antibody at 37° C. for 60 minutes, and thereto was added HRP chromogenic substrate (0.1 M phosphate buffer containing 0.4 mg/ml O-phenylenediamine,0.01% hydrogen peroxide, 0.1 M citric acid, pH 5), and reacted at room temperature for 15 minutes. The reaction was terminated by adding thereto 4.5 M sulfuric acid at a volume of 25 μl/well, and the absorbance at 490 nm was measured.

Assay [1] concerns platelet aggregation. As to the kind of experiment: Platelet aggregation inhibitory activity (ADP-induced, human platelet rich plasma). It counts as cell-based. The method, boiled down: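 Citrated human platelet-rich plasma […] was stirred with test compound for 2 min at 37 °C. Aggregation was then induced with ADP at 3 μg/ml final and monitored by nephelometry. IC50 is the concentration giving 50% inhibition of aggregation.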

Another assay has as its system human vitronectin. As to the kind of experiment: Binding assay of platelet to adhesive protein: vitronectin (receptor binding inhibition). Conditions: Table 4; fixed activated human platelets, 37° C., 60 minutes; read-out: receptor binding inhibition (IC50), Bitronectin. The method, then: as §1, §2
Assay [2] relates to platelet aggregation. As to the kind of experiment: Platelet aggregation inhibitory activity (ex vivo) after oral administration. The format is in vivo. Particulars: Cavia porcellus, guinea pig, oral 0.1 mg/kg, ADP 10 μg/ml. The method, then: A canula for collecting blood was inserted into the left common carotid artery of a guinea pig which was anesthetized with pentobarbital (30 mg/kg, i.p.). The blood (1 ml) was taken with a syringe containing 1/10 volume of 3.8% sodium citrate (Kettin-citrate, manufactured by Kokusai Shiyaku Ltd.), and the platelet aggregation ability thereof was measured (as a value before administration). Then, a test compound was orally administered to the guinea pig at a dose of 0.1 mg/kg in a volume of 5 ml/kg, and the blood was collected periodically likewise at 0.5, 1, 2, 4 and 6 hours after the administration of the test compound, and the platelet aggregation ability thereof was measured.
The determination of the platelet aggregation ability was carried out by turbidimetry using a Hematracer (Niko Bioscience) as follows. That is, the blood was centrifuged at 4500 rpm at room temperature for 10 seconds, and the supernatant was considered as platelet rich plasma (PRP), and the precipitate was centrifuged at 11000 rpm for two minutes and its supernatant was considered as platelet poor plasma (PPP), and the photo-transmittance of the PRP and the PPP was adjusted to 0%, and 100%, respectively. A cubet containing PRP (200 μl) was inserted to a measurement well, and […] at 1000 rpm at 37° C. for two minutes, and thereto was added a platelet aggregator; ADP (adenosine diphosphate, Sigma Ltd., 20 μl, final concentration; 10 μg/ml), and the maximum aggregation rate was measured. From the maximum aggregation rate before the administration of the test compound (MAR control) and the maximum aggregation rate after the administration of the test compound (MAR sample), the platelet aggregation inhibitory rate of each test compound was estimated according to the following equation.
Inhibitory rate (%)=(1-(MAR sample/MAR control))×100
The periodical change in the platelet aggregation inhibitory rate of each test compound at a dose of 0.1 mg/kg of oral administration is shown in Table 5.

Another assay concerns the target T1, human fibrinogen (Homo sapiens, UniProt P05106+P08514).
T1 construct: centrifuged at 11000 rpm for two minutes to give human platelet; from tissue
As to the kind of experiment: Binding assay of platelet to adhesive protein: fibrinogen (receptor binding inhibition). Particulars: Table 4; fixed activated human platelets, 37° C., 60 minutes. The method, then: as §1, §2

Where [3] appears, read: Table 1, human PRP, ADP 3 μg/ml, 37° C.
The mark [4] stands for this setting: 0.5 hr, read-out: platelet aggregation inhibitory rate (%), 0.5 hr.
Where [5] appears, read: 1 hr, read-out: platelet aggregation inhibitory rate (%), 1 hr.
The mark [6] stands for this setting: 2 hrs, read-out: platelet aggregation inhibitory rate (%), 2 hrs.
Where [7] appears, read: 4 hrs, read-out: platelet aggregation inhibitory rate (%), 4 hrs.
The mark [8] stands for this setting: 6 hrs, read-out: platelet aggregation inhibitory rate (%), 6 hrs.
Where [9] appears, read: Homo sapiens, Table 2, same manner as Example 17.

Each structure is given as a SMILES string. Like-named read-outs stand apart in the source and are kept apart here.

T1 sequence (P08514 32-887 limits assumed): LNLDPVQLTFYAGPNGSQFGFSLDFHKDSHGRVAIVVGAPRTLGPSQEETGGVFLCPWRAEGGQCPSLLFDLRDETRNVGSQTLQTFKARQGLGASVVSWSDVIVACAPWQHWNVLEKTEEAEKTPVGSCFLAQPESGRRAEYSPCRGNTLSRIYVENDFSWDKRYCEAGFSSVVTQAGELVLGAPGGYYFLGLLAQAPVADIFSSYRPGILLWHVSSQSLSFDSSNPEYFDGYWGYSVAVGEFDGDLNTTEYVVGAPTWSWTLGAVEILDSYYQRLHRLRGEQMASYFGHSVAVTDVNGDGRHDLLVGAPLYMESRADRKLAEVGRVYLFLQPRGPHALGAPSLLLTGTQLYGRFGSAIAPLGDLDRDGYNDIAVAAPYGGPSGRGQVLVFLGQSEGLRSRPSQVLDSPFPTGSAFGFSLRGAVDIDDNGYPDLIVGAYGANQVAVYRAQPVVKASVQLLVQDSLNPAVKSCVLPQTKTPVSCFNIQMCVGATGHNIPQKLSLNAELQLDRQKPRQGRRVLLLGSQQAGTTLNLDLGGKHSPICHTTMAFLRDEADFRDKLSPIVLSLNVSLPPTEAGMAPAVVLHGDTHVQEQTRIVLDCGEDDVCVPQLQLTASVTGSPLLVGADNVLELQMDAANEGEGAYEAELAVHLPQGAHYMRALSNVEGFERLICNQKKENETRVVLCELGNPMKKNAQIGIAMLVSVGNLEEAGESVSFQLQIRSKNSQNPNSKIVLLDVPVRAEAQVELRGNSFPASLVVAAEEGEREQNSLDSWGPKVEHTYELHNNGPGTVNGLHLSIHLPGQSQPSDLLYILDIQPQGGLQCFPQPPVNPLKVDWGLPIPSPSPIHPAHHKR
T1 sequence (P08514 891-1039 limits assumed): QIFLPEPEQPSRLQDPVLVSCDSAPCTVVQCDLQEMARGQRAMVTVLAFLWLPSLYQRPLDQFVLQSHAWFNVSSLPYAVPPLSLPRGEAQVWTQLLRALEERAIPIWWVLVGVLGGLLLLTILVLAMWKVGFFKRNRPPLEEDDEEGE
T1 sequence (P05106 27-788): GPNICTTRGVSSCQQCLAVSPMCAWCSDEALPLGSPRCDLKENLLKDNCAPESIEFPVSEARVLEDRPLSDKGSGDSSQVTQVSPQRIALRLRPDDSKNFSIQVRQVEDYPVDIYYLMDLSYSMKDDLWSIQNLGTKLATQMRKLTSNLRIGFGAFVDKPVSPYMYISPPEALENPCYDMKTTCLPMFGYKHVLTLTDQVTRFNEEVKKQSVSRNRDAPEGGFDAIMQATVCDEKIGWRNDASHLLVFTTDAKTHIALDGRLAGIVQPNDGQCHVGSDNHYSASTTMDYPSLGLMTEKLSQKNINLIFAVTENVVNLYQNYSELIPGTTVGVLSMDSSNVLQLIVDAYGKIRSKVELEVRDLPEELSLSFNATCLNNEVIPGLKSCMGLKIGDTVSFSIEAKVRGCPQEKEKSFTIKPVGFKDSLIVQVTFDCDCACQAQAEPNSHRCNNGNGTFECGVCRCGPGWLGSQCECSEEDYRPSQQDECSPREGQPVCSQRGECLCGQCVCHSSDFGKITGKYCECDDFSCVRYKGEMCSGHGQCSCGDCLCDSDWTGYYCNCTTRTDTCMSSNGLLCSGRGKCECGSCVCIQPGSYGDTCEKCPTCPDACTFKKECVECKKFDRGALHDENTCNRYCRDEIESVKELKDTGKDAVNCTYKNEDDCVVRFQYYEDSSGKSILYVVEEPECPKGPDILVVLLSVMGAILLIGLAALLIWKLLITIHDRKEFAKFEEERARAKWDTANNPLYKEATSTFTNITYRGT

For `N=C(N)c1ccc(C(=O)NCCC(=O)NC[C@H](NS(=O)(=O)c2ccccc2)C(=O)O)cc1` [Example 1, (2S)-3-(3-(4-amidinobenzoylamino)propanoylamino)-2-benzenesulfonylaminopropanoic Acid], the IC50 was 200 nM with human fibronectin, 16 nM in the assay with platelet aggregation [1] (setting [3]), 1000 nM with human vitronectin and 4.6 nM at human fibrinogen. For the same molecule, the inhibition in vivo at 0.1 mg/kg in the assay on platelet aggregation [2] (setting [4]), in the assay on platelet aggregation [2] (setting [5]), in the assay on platelet aggregation [2] (setting [6]), in the assay with platelet aggregation [2] (setting [7]) and in the assay with platelet aggregation [2] (setting [8]) was 100% each time.
With `O=C(CCC1CCNCC1)NCCC(=O)NC[C@H](NS(=O)(=O)c1ccccc1)C(=O)O` [Example 2, (2S)-2-benzenesulfonylamino-3-(3-(3-(4-piperidyl)propanoylamino)propanoylamino)propanoic Acid], the IC50 in the assay on human fibronectin amounted to 120 nM; with platelet aggregation [1] (setting [3]) it was 39.6 nM; in the assay with human vitronectin, 75000 nM; on human fibrinogen, 12 nM. Further, the inhibition in vivo at 0.1 mg/kg in the assay on platelet aggregation [2] (setting [4]) worked out at 87%; in the assay on platelet aggregation [2] (setting [5]), 78%; in the assay on platelet aggregation [2] (setting [6]) it was 67%; in the assay with platelet aggregation [2] (setting [7]) it was 32%; with platelet aggregation [2] (setting [8]), 13%.
`COc1ccc(S(=O)(=O)N[C@@H](CNC(=O)CCNC(=O)c2ccc(C(=N)N)cc2)C(=O)O)cc1` [Example 18, (2S)-3-(3-(4-amidinobenzoylamino)propanoylamino)-2-(4-methoxy)benzenesulfonylaminopropanoic Acid]: the IC50 in the assay on human fibronectin came to 400 nM; in the assay on platelet aggregation [1] (setting [9]) it was 33 nM; in the assay on human vitronectin it was 8900 nM; at human fibrinogen, 7.3 nM. Further, the inhibition in vivo at 0.1 mg/kg in the assay on platelet aggregation [2] (setting [4]) came to 54%; with platelet aggregation [2] (setting [5]) it was 100%; in the assay with platelet aggregation [2] (setting [6]) it was 100%; in the assay on platelet aggregation [2] (setting [7]) it was 73%; with platelet aggregation [2] (setting [8]), 66%.
In the case of `Cc1cc(C)c(S(=O)(=O)N[C@@H](CNC(=O)CCNC(=O)c2ccc(C(=N)N)cc2)C(=O)O)c(C)c1` [Example 19, (2S)-3-(3-(4-amidinobenzoylamino)propanoylamino)-2-(2,4,6-trimethyl)benzenesulfonylaminopropanoic Acid], the IC50 with human fibronectin came to 47 nM; with platelet aggregation [1] (setting [9]), 30 nM; in the assay with human vitronectin it was 1200 nM; at human fibrinogen, 5 nM. Moreover, the inhibition in vivo at 0.1 mg/kg in the assay with platelet aggregation [2] (setting [4]) was 86%; in the assay on platelet aggregation [2] (setting [5]), 93%; in the assay with platelet aggregation [2] (setting [6]) it was 91%; in the assay on platelet aggregation [2] (setting [7]), 89%; with platelet aggregation [2] (setting [8]), 91%.
As to `N=C(N)c1ccc(C(=O)NCCC(=O)NC[C@H](NS(=O)(=O)c2cccc3ccccc23)C(=O)O)cc1` [Example 20], the IC50 in the assay on human fibronectin came to 79 nM; in the assay on platelet aggregation [1] (setting [9]), 57 nM; in the assay with human vitronectin, 500 nM; at human fibrinogen, 7.3 nM. The inhibition in vivo at 0.1 mg/kg with platelet aggregation [2] (setting [4]) was determined as 76%; in the assay with platelet aggregation [2] (setting [5]) it was 91%; in the assay on platelet aggregation [2] (setting [6]), 99%; in the assay on platelet aggregation [2] (setting [7]) it was 100%; in the assay with platelet aggregation [2] (setting [8]) it was 100%.
For the molecule `N=C(N)c1ccc(C(=O)NCCC(=O)NC[C@H](NS(=O)(=O)c2ccccc2C(F)(F)F)C(=O)O)cc1` [Example 21, (2S)-3-(3-(4-amidinobenzoylamino)propanoylamino)-2-(2-trifluoromethyl)benzenesulfonylaminopropanoic Acid], the IC50 with human fibronectin was found to be 310 nM; with platelet aggregation [1] (setting [9]), 15 nM; in the assay with human vitronectin, 240 nM; at human fibrinogen, 2.2 nM. Moreover, the inhibition in vivo at 0.1 mg/kg with platelet aggregation [2] (setting [4]) turned out to be 96%; in the assay on platelet aggregation [2] (setting [5]), 99%; in the assay on platelet aggregation [2] (setting [6]), 100%; in the assay on platelet aggregation [2] (setting [7]), 100%; in the assay on platelet aggregation [2] (setting [8]), 100%.
With `Cc1cc(C)c(S(=O)(=O)N[C@@H](CNC(=O)CCCOc2ccc(C(=N)N)cc2)C(=O)O)c(C)c1` [Example 60, (2S)-3-(4-(4-amidinophenoxy)butanoylamino)-2-(2,4,6-trimethyl)benzenesulfonylaminopropanic Acid], the IC50 was 94 nM in the assay on human fibronectin, 31 nM in the assay on platelet aggregation [1] (setting [9]), 1100 nM in the assay on human vitronectin and 1.5 nM on human fibrinogen.
As to `N=C(N)c1ccc(OCCCC(=O)NC[C@H](NS(=O)(=O)c2ccc(F)cc2)C(=O)O)cc1` [Example 61, (2S)-3-(4-(4-amidinophenoxy)butanoylamino)-2-(4-fluoro)benzenesulfonylaminopropanic Acid], the IC50 turned out to be 25 nM in the assay on human fibronectin, 24 nM in the assay with platelet aggregation [1] (setting [9]), 380 nM in the assay with human vitronectin and 1 nM on human fibrinogen. For the same molecule, the inhibition in vivo at 0.1 mg/kg with platelet aggregation [2] (setting [4]) is 45%; with platelet aggregation [2] (setting [5]), 32%; in the assay on platelet aggregation [2] (setting [6]) it was 25%; in the assay on platelet aggregation [2] (setting [7]) it was 48%; in the assay on platelet aggregation [2] (setting [8]), 0%.
As for `N=C(N)c1ccc(OCCCC(=O)NC[C@H](NS(=O)(=O)c2cccc3ccccc23)C(=O)O)cc1` [Example 62, (2S)-3-(4-(4-amidinophenoxy)butanoylamino)-2-(1-naphthalene)sulfonylaminopropanoic Acid], the IC50 in the assay on human fibronectin came to 4.5 nM; in the assay on platelet aggregation [1] (setting [9]) it was 26 nM; with human vitronectin, 240 nM; on human fibrinogen, 1.1 nM. For the same molecule, the inhibition in vivo at 0.1 mg/kg turned out to be 63% with platelet aggregation [2] (setting [4]); 69% in the assay on platelet aggregation [2] (setting [5]); 63% in the assay with platelet aggregation [2] (setting [6]); 56% in the assay with platelet aggregation [2] (setting [7]); 50% in the assay on platelet aggregation [2] (setting [8]).
As for `COc1ccc(S(=O)(=O)N[C@@H](CNC(=O)Cc2ccc(-c3ccc(C(=N)N)cc3)cc2)C(=O)O)cc1` [Example 68, (2S)-3-(2-(4'-amidino-4-biphenylyl)ethanoylamino)-2-(4-methoxy)benzenesulfonylaminopropanoic Acid], the half-inhibitory concentration (IC50) came to 99 nM in the assay on human fibronectin, 43 nM with platelet aggregation [1] (setting [9]), 2700 nM in the assay on human vitronectin and 12 nM at human fibrinogen.
